Experimental data as given in patent US20200085864A1, “Stannous Fluoride Sugar Alcohol Solid Solutions” (WhiteHill Life Sciences, LLC, priority 2018, published 2020).

Conditions: aqueous SnF2

[F][Sn][F] [Stannous fluoride]
Natural pH of stannous fluoride: about 3.2
